From patent publication US6342501B1, “Pyrrolo[2,3-d] pyrimidines as antiviral agents” (The Regents of the University of Michigan, priority 1994, dated 2002) come the findings set out here.

For data set [1], the system named is herpes simplex virus type 1 (HSV-1). As to the kind of experiment: HSV-1 ELISA in BSC-1 cells. It counts as cell-based, KOS strain. The conditions noted are these: read-out: HSV-1. Here is the method:
(§1) The routine growth and passage of KB and BSC-1 cells was performed in monolayer cultures using minimal essential medium (MEM) with either Hanks salts [MEM(H)] or Earle salts [MEM(E)] supplemented with 10% calf serum. The sodium bicarbonate concentration was varied to meet the buffering capacity required. Cultures of diploid human foreskin fibroblast (HFF) or MRC-5 cells were grown in medium consisting of MEM(E) with 10% fetal bovine serum. Cells were passaged at 1:2 to 1:10 dilutions according to conventional procedures by using 0.05% trypsin plus 0.02% EDTA in a HEPES buffered salt solution (HBS) [Shipman, C., Jr., Proc. Soc. […] HFF and MRC-5 cells were passaged only at 1:2 dilutions. The Towne strain, plaque-purified isolate Po, of HCMV was kindly provided by Dr. Mark Stinski, University of Iowa. The KOS strain of HSV-1 was used in most experiments and was provided by Dr. Sandra K. Weller, University of Conn.
High titer HSV-1 stocks were prepared by infecting BSC cells at an m.o.i. of <0.1 as detailed previously [Turk, S. R., et al., Antimicrob.
Ninety-six-well cluster dishes were planted with 10,000 BSC-1 cells per well in 200 μL per well of MEM(E) plus 10% calf serum. After overnight incubation at 37° C., selected drug concentrations in quadruplicate and HSV-1 at a concentration of 100 p.f.u./well were added. Following a 3-day incubation at 37° C., medium was removed, plates were blocked, rinsed, and horse radish peroxidase conjugated rabbit anti-HSV-1 antibody was added. Following removal of the antibody containing solution, plates were rinsed, and then developed by adding 150 μL per well of a solution of tetramethylbenzidine as substrate. The reaction was stopped with H2SO4 and absorbance was read at 450 and 570 nm. Drug effects were calculated as a percentage of the reduction in absorbance in the presence of each drug concentration compared to absorbance obtained with virus in the absence of drug.
(§2) Dose-response relationships were constructed by linearly regressing the percent inhibition of parameters derived in the preceding sections against logarithm 10 drug concentrations. […] Samples containing positive controls (acyclovir for HSV-1 and ganciclovir for HCMV) were used in all assays.

The subject of data set [2] is KB cells. Kind of data set: Cytotoxicity: KB cell growth (crystal violet staining). In kind it is cell-based. The conditions noted are these: Homo sapiens, read-out: KBgrv. Here is the method: (§3) Two different assays were used to explore cytotoxicity of selected compounds: (i) Cytotoxicity produced in stationary HFF cells was determined by microscopic inspection of cells used in plaque assays which were not affected by the virus [Turk, S. R., et al, Antimicrob.
Briefly, 96-well cluster dishes were planted with KB cells at 3000-5000 cells per well. After overnight incubation at 37° C., test compound was added in quadruplicate at six to eight concentrations. Plates were incubated at 37° C for 48 hours in a CO2 incubator, rinsed, fixed with 95% ethanol, and stained with 0.1% crystal violet. Acidified ethanol was added and plates read at 570 nm in a spectrophotometer designed to read 96-well ELISA assay plates.
as §2

Data set [3] deals with human cytomegalovirus (HCMV). As to the kind of experiment: microbe, parasite or virus in culture. Conditions: for IC50: Human betaherpesvirus 5, HFF, read-out: HCMV; for antiviral activity against HCMV (in words): comment on Table 1 data. In kind it is cell-based, Towne strain. The protocol: as §1
Stock HCMV was prepared by infecting HFF cells at a multiplicity of infection (m.o.i.) of <0.01 plaque-forming units (p.f.u.) per cell. Cell growth medium was changed every four days until cytopathology was evident in all cells (approximately 21 days). Supernatant fluids were retained as the virus stock.
Virus titers were determined using monolayer cultures of HFF cells for HCMV and monolayer cultures of BSC-1 cells for HSV-1 as described earlier [Prichard, M. N., et al., J. Virol. […] Briefly, HFF or BSC-1 cells were planted as described above in 96-well cluster dishes and incubated overnight at 37. degree. C. in a humidified 3% C02 -97% air atmosphere. The next day cultures were inoculated with HCMV or HSV-1 and serially diluted 1:3 across the remaining eleven columns of the 96-well plate. Cultures were incubated at 37. degree. C. for 2 hr to permit virus adsorption and then virus inoculum was replaced with 0.2 ml of fresh medium. Cultures were incubated for seven days for HCMV, two or three days for HSV-1, the medium was removed, and the cell sheets were stained with 0.1% crystal violet in 20% methanol.
HFF cells in 24-well cluster dishes were infected with approximately 100 p.f.u. of HCMV per cm^2 cell sheet using the procedures detailed above. Following virus adsorption, compounds dissolved in growth medium were added to duplicate wells in four to eight selected concentrations. After incubation at 37° C. for 7 to 10 days, cell sheets were fixed, stained with crystal violet and microscopic plaques enumerated as described above.
After virus adsorption, inoculum was replaced with 0.2 mL of fresh medium containing test compounds. The first row of 12 wells was left undisturbed and served as virus controls. Each well in the second row received an additional 0.1 mL of medium with test compound at three times the desired final concentration. The contents of the 12 wells were mixed by repeated pipetting and then serially diluted 1:3 along the remaining wells. In this manner, six compounds could be tested in duplicate on a single plate with concentrations from […]. Plates were incubated at 37° C. for seven days, subjected to one cycle of freezing and thawing; aliquots from each of the eight wells of a given column were transferred to the first column of a fresh 96-well monolayer culture of HFF cells. Contents were mixed and serially diluted 1:3 across the remaining eleven columns of the secondary plate. Each column of the original primary plate was diluted across a separate plate in this manner. Cultures were incubated, plaques were enumerated, and titers calculated as described above.
as §2

For data set [4], the system named is human foreskin fibroblasts (HFF cells). Kind of data set: Cytotoxicity in stationary HFF cells (microscopic inspection of plaque assay cells). Conditions: read-out: HFF. In kind it is cell-based. Here is the method: as §3, §2
Where [5] appears, read: Human alphaherpesvirus 1, 72 h, Table 1, fifty-percent inhibitory concentration, ELISA, BSC-1 cells, 3-day incubation.
Where [6] appears, read: Table 1, cytotoxicity, KB cell growth, 48 hours.
Where [7] appears, read: Table 1, cytotoxicity, stationary HFF cells, visual.
Setting [8] is: Human alphaherpesvirus 1, BSC-1, 72 h.

Like-named read-outs stand apart in the source and are kept apart here.

Regarding `N#Cn1c(Br)c(CCc2ccc(Cl)cc2)c2ncnc(N)c21` [Compound 6f, 4-Amino-6-Bromo-5-cyano-7-(4-chlorophenethyl)pyrrolo[2,3]pyrimidine], the melting point was 280 °C (dec.).

Consider `NC(=S)c1cn(CCCc2ccccc2)c2ncnc(N)c12` [Compound 1413, 4-amino-7-(3-phenyl)propyl-pyrrolo[2,3-d]pyrimidine-5-thiocarboxamide], for which the IC50 in data set [1] (setting [5]) stood at 1.5 µM; in data set [2] (setting [6]), 38 µM; in data set [3], 0.5 µM; in data set [4] (setting [7]), 32 µM. For the same molecule, in data set [3], the “antiviral activity against HCMV (in words)” value (“antiviral activity” below) was “excellent activity”.

As to `CC(c1ccccc1)n1cc(C#N)c2c(N)ncnc21` (stereo not drawn) [Compound 1414, 4-amino-7-((2-phenyl)eth-2-yl)-pyrrolo[2,3-d]pyrimidine-5-carbonitrile], the IC50 was 45 µM in data set [1] (setting [5]), 20 µM in data set [2] (setting [6]), 17 µM in data set [3] and greater than 120 µM in data set [4] (setting [7]).

As for `NC(=O)c1cn(Cc2ccc(F)cc2)c2ncnc(N)c12` [Compound 1419, 4-amino-7-(4-fluorobenzyl)-pyrrolo[2,3-d]pyrimidine-5-carboxamide], the IC50 in data set [1] (setting [8]) is 16 µM; in data set [2] (KB, 48 h), 50 µM; in data set [3], 4.2 µM; in data set [4] (HFF) it was 100 µM. In addition, in data set [3], the “antiviral activity” value is reported as “good to excellent antiviral activity”.

On to `NC(=O)c1cn(Cc2cccc([N+](=O)[O-])c2)c2ncnc(N)c12` [Compound 1421, 4-amino-7-(3-nitrobenzyl)-pyrrolo[2,3-d]pyrimidine-5-carboxamide], for which the IC50 in data set [1] (setting [8]) was greater than 100 µM; in data set [2] (KB, 48 h) it was greater than 100 µM; in data set [3], 42 µM; in data set [4] (HFF) it was greater than 100 µM.

Turning to `N#Cc1c(N)n(Cc2cccc([N+](=O)[O-])c2)c2ncnc(N)c12` [Compound 1425, 4,6-diamino-7-(3-nitrobenzyl)-pyrrolo[2,3-d]pyrimidine-5-carbonitrile], the IC50 in data set [1] (setting [5]) was greater than 100 µM; in data set [2] (setting [6]), greater than 100 µM; in data set [3], 5 µM; in data set [4] (setting [7]) it was greater than 100 µM. In addition, the “antiviral activity” value in data set [3] was “Some activity”.

Regarding `Cc1ccc(Cn2c(Br)c(C(N)=O)c3c(N)ncnc32)cc1` [Compound 1427, 4-amino-6-bromo-7-(4-methylbenzyl)-pyrrolo[2,3-d]pyrimidine-5-carboxamide], the IC50 in data set [1] (setting [8]) is greater than 100 µM; in data set [2] (KB, 48 h), greater than 100 µM; in data set [3], greater than 10 µM; in data set [4] (HFF), greater than 10 µM.

As for `CC(c1ccccc1)n1cc(C(N)=O)c2c(N)ncnc21` (stereo not drawn) [Compound 1428, 4-amino-7-((2-phenyl)-eth-2-yl)-pyrrolo[2,3-d]pyrimidine-5-carboxamide], the IC50 in data set [1] (setting [8]) amounted to 50 µM; in data set [2] (KB, 48 h), 20 µM; in data set [3] it was 38 µM; in data set [4] (HFF), 45 µM. The “antiviral activity” value in data set [3] was “good to excellent antiviral activity”.

On to `N#Cc1cn(Cc2ccc(F)cc2)c2ncnc(N)c12` [Compound 1429, 4-amino-7-(4-fluorobenzyl)-pyrrolo[2,3-d]pyrimidine-5-carbonitrile], for which the IC50 in data set [1] (setting [5]) was 33 µM; in data set [2] (setting [6]) it was 60 µM; in data set [3], 1.8 µM; in data set [4] (setting [7]), greater than 100 µM. For the same molecule, in data set [3], the “antiviral activity” value is given as “good to excellent antiviral activity”.

Regarding `Cc1ccc(Cn2c(Br)c(C#N)c3c(=O)[nH]cnc32)cc1` [Compound 1441, 4-oxo-6-bromo-7-(4-methylbenzyl)-pyrrolo[2,3-d]pyrimidine-5-carbonitrile], the IC50 stood at 90 µM in data set [1] (setting [5]), 16 µM in data set [2] (setting [6]), 21 µM in data set [3] and 100 µM in data set [4] (setting [7]).

On to `NC(=O)c1c(Br)n(Cc2ccc(Cl)cc2)c2ncnc(N)c12` [Compound 1443, 4-amino-6-bromo-7-(4-chlorobenzyl)-pyrrolo[2,3-d]pyrimidine-5-carboxamide], for which the IC50 in data set [1] (setting [8]) was greater than 100 µM; in data set [2] (KB, 48 h), greater than 100 µM; in data set [3], greater than 10 µM; in data set [4] (HFF), greater than 10 µM.

`N#Cc1cn(Cc2ccc(Cl)cc2)c2ncnc(N)c12` [Compound 1444, 4-amino-7-(4-chlorobenzyl)-pyrrolo[2,3-d]pyrimidine-5-carbonitrile]: the IC50 in data set [1] (setting [5]) is 85 µM; in data set [2] (setting [6]), greater than 100 µM; in data set [3], 0.8 µM; in data set [4] (setting [7]), greater than 10 µM. For the same molecule, the “antiviral activity” value in data set [3] is recorded as “good to excellent antiviral activity”.

For `NC(=S)c1cn(CCc2ccccc2)c2ncnc(N)c12` [Compound 1446, 4-amino-7-(2-phenyl)ethyl-pyrrolo[2,3-d]pyrimidine-5-thiocarboxamide], the IC50 in data set [1] (setting [5]) is 0.65 µM; in data set [2] (setting [6]), 10 µM; in data set [3], greater than 1 µM; in data set [4] (setting [7]), 100 µM. Also, in data set [3], the “antiviral activity” value is listed as “excellent activity”.

As for `N#Cc1c(N)n(Cc2cccc(N)c2)c2ncnc(N)c12` [Compound 1455, 4,6-diamino-7-(3-aminobenzyl)-pyrrolo[2,3-d]pyrimidine-5-carbonitrile], the IC50 in data set [1] (setting [5]) is greater than 100 µM; in data set [2] (setting [6]), 40 µM; in data set [3], 6.5 µM; in data set [4] (setting [7]) it was greater than 100 µM. For the same molecule, the “antiviral activity” value in data set [3] is given as “Some activity”.

With `N#Cc1c(Br)n(Cc2cccc(Cl)c2)c2ncnc(N)c12` [Compound 1461, 4-amino-6-bromo-7-(3-chlorobenzyl)-pyrrolo[2,3-d]pyrimidine-5-carbonitrile], the IC50 in data set [1] (setting [5]), in data set [2] (setting [6]), in data set [3] and in data set [4] (setting [7]) was greater than 100 µM in each case.

Turning to `N#Cc1c(Br)n(Cc2ccc(Cl)c(Cl)c2)c2ncnc(N)c12` [Compound 1462, 4-amino-6-bromo-7-(3,4-dichlorobenzyl)-pyrrolo[2,3-d]pyrimidine-5-carbonitrile], the IC50 in data set [1] (setting [5]), in data set [2] (setting [6]), in data set [3] and in data set [4] (setting [7]) was greater than 100 µM in each case.
